Earlier results, collected in patent US5041577A, “Organogermanium compounds, processes for producing the same, and agent for inhibiting the activity of opioid peptide-degrading enzyme” (Asai Germanium Research Institute Co., Ltd., priority 1989, dated 1991).

How the values were obtained:
[1] = system: spontaneous hypertensive rats
[2] = system: amyloidosis
[3] = system: macrophage
[4] = system: interferon
[5] = system: tumor

For `O=C(O)C[CH2][Ge](=[O])[O][Ge](=[O])[CH2]CC(=O)O` [carboxyethylgermanium sesquioxide], the hypotensive action [1] is listed as “shows a hypotensive action”, the amyloidosis-alleviating action [2] is listed as “amyloidosis-alleviating action” and the macrophage-augmenting action [3] is listed as “macrophage-augmenting action”. The interferon-inducing action [4] was “interferon-inducing action” and the antitumor action [5] was “antitumor action”.
